Results as given in ChEMBL document CHEMBL5096234, “Discovery, Optimization, and Evaluation of Selective CDK4/6 Inhibitors for the Treatment of Breast Cancer” (J Med Chem, 2022).
pIC50: −log10 of the molar value. Converted amounts (≈) assume the structure as drawn. The source made the active and inactive calls. No cut-off for these calls is given here.

Legend:
CDK4/Cyclin D3 = CDK4/Cyclin D3 (Homo sapiens, UniProt P11802); experiment: Inhibition of CDK4/cyclin-D3 (unknown origin) in presence of ATP by time resolved-FRET assay; type: protein-complex assay
CDK9/cyclin T1 = CDK9/cyclin T1 (Homo sapiens, UniProt P50750); experiment: Inhibition of CDK9/Cyclin T1 (unknown origin) in presence of ATP by time resolved-FRET assay; type: protein-complex assay
T47D [1] = experiment: Antiproliferative activity against human T47D cells assessed as cell growth inhibition incubated for 72 hrs by CCK-8 assay; type: functional
MCF-10A = experiment: Antiproliferative activity against human MCF-10A cells assessed as cell growth inhibition incubated for 72 hrs by CCK-8 assay; type: functional
MCF7 = experiment: Induction of cell cycle arrest in human MCF7 cells assessed as accumulation of cells at G2 phase at 3 uM incubated for 24 hrs by propidium iodide staining based flow cytometry analysis (reference value: 29.66%); type: functional
T47D [2] = experiment: Induction of cell cycle arrest in human T47D cells assessed as accumulation of cells at G1 phase at 1 uM incubated for 24 hrs by propidium iodide staining based flow cytometry analysis (reference value: 69.55 %); type: functional
T47D [3] = experiment: Induction of cell cycle arrest in human T47D cells assessed as accumulation of cells at G2 phase at 1 uM incubated for 24 hrs by propidium iodide staining based flow cytometry analysis (reference value: 16.57%); type: functional
[4] = target: T1, Retinoblastoma-associated protein (Homo sapiens) (UniProt P06400); experiment: Inhibition of RB phosphorylation in human MCF7 cells at 1.5 to 5 uM incubated for 24 hrs by Western blot analysis; type: cell-based; conditions: dose 1.5-5 µM
T1 sequence (whole entry): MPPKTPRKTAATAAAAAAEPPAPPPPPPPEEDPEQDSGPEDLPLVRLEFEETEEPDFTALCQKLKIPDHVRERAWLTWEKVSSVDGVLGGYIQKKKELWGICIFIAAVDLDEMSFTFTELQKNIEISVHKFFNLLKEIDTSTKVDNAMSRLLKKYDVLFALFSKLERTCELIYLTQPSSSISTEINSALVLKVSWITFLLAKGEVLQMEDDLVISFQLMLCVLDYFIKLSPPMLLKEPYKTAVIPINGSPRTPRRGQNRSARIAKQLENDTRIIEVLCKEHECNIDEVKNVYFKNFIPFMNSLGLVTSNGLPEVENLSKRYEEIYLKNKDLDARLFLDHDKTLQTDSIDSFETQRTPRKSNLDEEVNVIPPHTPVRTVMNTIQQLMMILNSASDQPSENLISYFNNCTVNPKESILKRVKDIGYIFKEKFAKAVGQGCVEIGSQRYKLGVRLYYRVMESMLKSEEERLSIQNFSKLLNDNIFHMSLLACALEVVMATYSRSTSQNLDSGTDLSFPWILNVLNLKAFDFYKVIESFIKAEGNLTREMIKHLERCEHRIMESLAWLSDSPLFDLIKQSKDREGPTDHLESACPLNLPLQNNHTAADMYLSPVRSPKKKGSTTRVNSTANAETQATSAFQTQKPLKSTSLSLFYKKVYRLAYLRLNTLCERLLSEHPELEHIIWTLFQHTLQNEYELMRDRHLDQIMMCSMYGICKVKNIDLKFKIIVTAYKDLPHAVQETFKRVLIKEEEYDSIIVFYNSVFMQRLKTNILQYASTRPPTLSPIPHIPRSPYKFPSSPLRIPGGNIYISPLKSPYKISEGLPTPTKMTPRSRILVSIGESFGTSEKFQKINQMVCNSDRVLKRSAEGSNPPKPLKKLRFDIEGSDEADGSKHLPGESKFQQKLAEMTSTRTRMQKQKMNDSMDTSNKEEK

[5] = target: T1, Retinoblastoma-associated protein (Homo sapiens); experiment: Inhibition of RB phosphorylation in human T47D cells at 1 to 4 uM incubated for 24 hrs by Western blot analysis; type: cell-based; conditions: dose 1-4 µM
T47D [6] = experiment: Downregulation c-MYC level in human T47D cells incubated for 24 hrs by Western blot analysis; type: functional, cell-based; conditions: dose 1-4 µM, DDE = dose-dependent effect
T47D [7] = experiment: Downregulation cyclin D1 level in human T47D cells incubated for 24 hrs by Western blot analysis; type: functional, cell-based; conditions: dose 1-4 µM, DDE = dose-dependent effect
[8] = Thermodynamic solubility of the compound incubated for 24 hrs under shaking condition by LC-MS/MS analysis; type: physicochemical; conditions: read-out: Therm_solubility
CYP3A4 = CYP3A4 (Homo sapiens, UniProt P08684); experiment: Inhibition of CYP3A4 in human liver microsomes using testosterone as substrate at 10 uM preincubated for 5 mins followed by NADPH addition by LC-MS/MS analysis relative to control; type: ADME, Microsome; conditions: probe testosterone
[9] = MRT (0 to infinity) in Sprague-Dawley rat 1 mg/kg, iv by LC/MS/MS analysis; type: ADME, organism-based; conditions: in vivo
[10] = Tmax in Sprague-Dawley rat 1 mg/kg, iv by LC/MS/MS analysis; type: ADME, organism-based; conditions: in vivo
[11] = Tmax in Sprague-Dawley rat 10 mg/kg, po by LC/MS/MS analysis; type: ADME, organism-based; conditions: in vivo
[12] = Half life in Sprague-Dawley rat 10 mg/kg, po by LC/MS/MS analysis; type: ADME, organism-based; conditions: in vivo
[13] = Oral bioavailability in Sprague-Dawley rat 10 mg/kg by LC/MS/MS analysis; type: ADME, organism-based; conditions: in vivo
[14] = Acute toxicity in ICR mouse assessed as animal death at 5000 mg/kg, po administered as single dose and measured every 2 days for 14 days; type: organism-based; conditions: in vivo, 336 h, time 14 day
[15] = Acute toxicity in ICR mouse assessed as change in spleen weight at 1000 to 5000 mg/kg, po administered as single dose and measured every 2 days for 14 days; type: organism-based; conditions: in vivo, 336 h, dose 1000-5000 mg/kg, time 14 day
[16] = Acute toxicity in ICR mouse assessed as heart kidney at 5000 mg/kg, po administered as single dose and measured every 2 days for 14 days by H and E staining based analysis; type: organism-based; conditions: in vivo, 336 h, time 14 day
[17] = Toxicity in BALB/c mouse xenografted with human MCF7 cells assessed as increase in body weight at 100 to 150 mg/kg, po administered once daily and measured every 2 days for 23 days; type: organism-based; conditions: in vivo, 552 h, dose 100-150 mg/kg, time 23 day

Sequence of CDK4/Cyclin D3 (P11802 whole entry): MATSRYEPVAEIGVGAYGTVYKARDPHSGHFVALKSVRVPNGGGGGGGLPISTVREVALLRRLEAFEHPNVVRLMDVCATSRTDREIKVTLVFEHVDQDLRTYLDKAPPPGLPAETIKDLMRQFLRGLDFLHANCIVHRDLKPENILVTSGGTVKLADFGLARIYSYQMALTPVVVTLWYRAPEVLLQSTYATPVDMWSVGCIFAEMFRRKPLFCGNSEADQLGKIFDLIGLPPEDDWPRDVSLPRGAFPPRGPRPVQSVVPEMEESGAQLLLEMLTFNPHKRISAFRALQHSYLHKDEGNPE
Sequence of CDK4/Cyclin D3 (P30281 whole entry, further chain): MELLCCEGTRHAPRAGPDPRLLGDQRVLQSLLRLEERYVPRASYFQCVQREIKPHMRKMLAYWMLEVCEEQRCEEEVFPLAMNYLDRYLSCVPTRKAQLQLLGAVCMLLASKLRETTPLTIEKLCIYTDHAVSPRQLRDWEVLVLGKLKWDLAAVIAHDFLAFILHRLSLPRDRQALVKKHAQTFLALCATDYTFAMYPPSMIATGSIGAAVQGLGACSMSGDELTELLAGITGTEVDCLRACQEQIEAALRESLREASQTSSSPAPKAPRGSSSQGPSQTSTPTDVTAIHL
Sequence of CYP3A4 (P08684 whole entry): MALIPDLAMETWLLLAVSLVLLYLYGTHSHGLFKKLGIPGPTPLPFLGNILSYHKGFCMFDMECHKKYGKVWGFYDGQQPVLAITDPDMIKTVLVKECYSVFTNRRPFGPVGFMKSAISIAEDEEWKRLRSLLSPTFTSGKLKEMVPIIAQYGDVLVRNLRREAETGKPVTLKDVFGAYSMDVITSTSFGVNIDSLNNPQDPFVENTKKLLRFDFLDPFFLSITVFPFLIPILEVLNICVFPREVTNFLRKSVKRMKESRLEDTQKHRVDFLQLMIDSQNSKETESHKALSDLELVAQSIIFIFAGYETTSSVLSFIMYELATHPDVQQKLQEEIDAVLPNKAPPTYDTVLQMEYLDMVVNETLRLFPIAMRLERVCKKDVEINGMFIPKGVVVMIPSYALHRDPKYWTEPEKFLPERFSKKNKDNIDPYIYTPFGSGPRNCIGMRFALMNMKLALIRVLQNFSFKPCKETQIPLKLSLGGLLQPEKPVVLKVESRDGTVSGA
Sequence of CDK9/cyclin T1 (O60563 whole entry): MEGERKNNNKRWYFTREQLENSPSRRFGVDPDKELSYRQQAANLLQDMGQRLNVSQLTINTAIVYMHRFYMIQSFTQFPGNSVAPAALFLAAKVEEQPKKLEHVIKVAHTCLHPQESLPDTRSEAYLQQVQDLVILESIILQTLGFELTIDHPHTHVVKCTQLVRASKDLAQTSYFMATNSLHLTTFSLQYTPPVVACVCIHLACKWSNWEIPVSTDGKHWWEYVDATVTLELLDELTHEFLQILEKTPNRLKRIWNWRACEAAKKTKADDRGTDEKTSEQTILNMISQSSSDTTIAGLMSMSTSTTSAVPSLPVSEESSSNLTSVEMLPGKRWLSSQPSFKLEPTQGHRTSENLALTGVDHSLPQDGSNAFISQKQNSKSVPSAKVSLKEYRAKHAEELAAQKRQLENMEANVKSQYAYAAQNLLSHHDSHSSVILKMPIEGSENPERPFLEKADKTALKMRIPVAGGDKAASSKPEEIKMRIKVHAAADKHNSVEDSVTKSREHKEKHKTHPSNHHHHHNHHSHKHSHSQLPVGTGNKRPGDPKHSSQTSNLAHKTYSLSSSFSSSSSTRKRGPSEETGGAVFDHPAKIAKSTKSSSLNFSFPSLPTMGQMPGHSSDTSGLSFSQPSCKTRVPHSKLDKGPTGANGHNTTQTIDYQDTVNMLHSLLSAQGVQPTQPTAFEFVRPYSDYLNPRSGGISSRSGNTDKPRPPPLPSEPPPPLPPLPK
Sequence of CDK9/cyclin T1 (P50750 whole entry): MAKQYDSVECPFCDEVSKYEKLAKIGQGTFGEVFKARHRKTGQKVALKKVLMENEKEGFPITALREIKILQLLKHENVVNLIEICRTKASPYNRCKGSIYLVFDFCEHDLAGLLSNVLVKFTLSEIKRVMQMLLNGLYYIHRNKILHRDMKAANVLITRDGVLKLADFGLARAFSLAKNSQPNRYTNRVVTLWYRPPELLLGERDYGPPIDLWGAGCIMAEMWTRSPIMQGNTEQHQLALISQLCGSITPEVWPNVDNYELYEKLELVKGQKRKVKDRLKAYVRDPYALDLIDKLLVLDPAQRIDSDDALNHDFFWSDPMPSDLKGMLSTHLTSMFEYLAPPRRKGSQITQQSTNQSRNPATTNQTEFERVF

Molecule `CCN1CCc2cc(-c3nc(Nc4ccc(N5CCNCC5)cn4)ncc3F)ccc2C1=O` has a pIC50 (CDK4/Cyclin D3) of 8.00, a pIC50 (CDK9/cyclin T1) of 5.57 and a GI50 (T47D [1]) of 887 nM. It also gave a GI50 (MCF-10A) of 17.7 µM, an Activity (MCF7) of 11.42% and an Activity (T47D [2]) of 83.14%. The Activity (T47D [3]) was 7.59%, the inhibition [4] was “Active” and the inhibition [5] was “Active”. The Activity (T47D [6]) was “Dde”, the Activity (T47D [7]) was “Dde” and the solubility thermodynamic at 24 h [8] was 1020 µg/mL (≈ 2280 µM). The inhibition at 10 µM (CYP3A4) was 12.4%, the MRT inf [9] was 3.5 h and the Tmax [10] was 1.98 min. It also gave a Tmax [11] of 6 h, a half-life [12] of 215 min and a bioavailability [13] of 43%. For the same molecule, the Activity [14] was “Non-Toxic”, the Activity [15] was “Non-Toxic” and the Activity [16] was “Non-Toxic”. For the same molecule, the Activity [17] was “Non-Toxic”.
